Laboratory results as given in US10508104B2, “6-hydroxy-5-(phenyl/heteroarylsulfonyl)pyrimidin-4(1H)-one as APJ agonists” (Bristol-Myers Squibb Company, priority 2016, dated 2019).

Target: human APJ receptor (Homo sapiens (Human), UniProt P35414)
Experiment: Intracellular cAMP accumulation assay (APJ hcAMP, HTRF)
Type: cell-based
Settings: human APJ, cAMP accumulation; read-out: Human APJ cAMP EC50 Potency range
How it was run: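 HEK293 cells stably expressing human APJ, 5,000 per well, incubated 30 min at rt with compound, […] and 2 μM forskolin. cAMP measured by HTRF against a cAMP standard curve as inhibition of forskolin-driven production. EC50 from variable-slope sigmoidal fit.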

human APJ receptor, sequence (P35414 whole entry): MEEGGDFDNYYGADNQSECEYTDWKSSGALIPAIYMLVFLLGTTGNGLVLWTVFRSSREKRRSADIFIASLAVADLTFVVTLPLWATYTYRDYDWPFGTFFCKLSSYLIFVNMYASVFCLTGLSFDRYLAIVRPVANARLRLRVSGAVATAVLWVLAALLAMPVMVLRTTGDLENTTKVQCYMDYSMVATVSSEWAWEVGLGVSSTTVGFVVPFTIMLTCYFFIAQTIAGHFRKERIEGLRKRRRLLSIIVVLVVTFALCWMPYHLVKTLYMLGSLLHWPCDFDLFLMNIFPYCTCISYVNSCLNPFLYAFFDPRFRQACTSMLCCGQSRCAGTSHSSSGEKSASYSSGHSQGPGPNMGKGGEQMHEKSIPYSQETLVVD

| EC50 | Structure (SMILES) |
| --- | --- |
| 0.01 to 10 nM | CCOCc1nc(=O)c(S(=O)(=O)c2ccc(-c3cccnc3C)cc2)c(O)n1[C@H]1CCc2ccccc21 [Example 319, 1-[(1S)-2,3-dihydro-1H-inden-1-yl]-2-(ethoxymethyl)-6-hydroxy-5-[4-(2-methylpyridin-3-yl)benzenesulfonyl]-1,4-dihydropyrimidin-4-one] |
| 0.01 to 10 nM | Cc1nc(F)ccc1-c1ccc(S(=O)(=O)c2c(O)n([C@H]3CCc4ccccc43)c(COC(C)C)nc2=O)cc1 [Example 320, 1-[(1S)-2,3-dihydro-1H-inden-1-yl]-5-[4-(6-fluoro-2-methylpyridin-3-yl)benzenesulfonyl]-6-hydroxy-2-[(propan-2-yloxy)methyl]-1,4-dihydropyrimidin-4-one] |
| 0.01 to 10 nM | COC[C@@H](c1ccccc1)n1c(COC(C)C)nc(=O)c(S(=O)(=O)c2ccc(-c3ccc(F)nc3C)cc2)c1O [Example 321, 5-[4-(6-fluoro-2-methylpyridin-3-yl)benzenesulfonyl]-6-hydroxy-1-[(1R)-2-methoxy-1-phenylethyl]-2-[(propan-2-yloxy)methyl]-1,4-dihydropyrimidin-4-one] |
| 0.01 to 10 nM | CCOCc1nc(=O)c(S(=O)(=O)c2ccc(-c3cncc(F)c3)cc2)c(O)n1[C@H]1CCc2ccccc21 [Example 322, 1-[(1S)-2,3-dihydro-1H-inden-1-yl]-2-(ethoxymethyl)-5-[4-(5-fluoropyridin-3-yl)benzenesulfonyl]-6-hydroxy-1,4-dihydropyrimidin-4-one] |
| 0.01 to 10 nM | CCOCc1nc(=O)c(S(=O)(=O)c2ccc(-c3ccncc3C)cc2)c(O)n1[C@H]1CCc2ccccc21 [Example 323, 1-[(1S)-2,3-dihydro-1H-inden-1-yl]-2-(ethoxymethyl)-6-hydroxy-5-[4-(3-methylpyridin-4-yl)benzenesulfonyl]-1,4-dihydropyrimidin-4-one] |
| 0.01 to 10 nM | CCOCc1nc(=O)c(S(=O)(=O)c2ccc(-c3ccnc(F)c3C)cc2)c(O)n1[C@H]1CCc2ccccc21 [Example 324, 1-[(1S)-2,3-dihydro-1H-inden-1-yl]-2-(ethoxymethyl)-5-[4-(2-fluoro-3-methylpyridin-4-yl)benzenesulfonyl]-6-hydroxy-1,4-dihydropyrimidin-4-one] |
| 0.01 to 10 nM | CCOCc1nc(=O)c(S(=O)(=O)c2ccc(-c3ccc(F)nc3)cc2)c(O)n1[C@H]1CCc2ccccc21 [Example 325, 1-[(1S)-2,3-dihydro-1H-inden-1-yl]-2-(ethoxymethyl)-5-[4-(6-fluoropyridin-3-yl)benzenesulfonyl]-6-hydroxy-1,4-dihydropyrimidin-4-one] |
| 0.01 to 10 nM | CCOCc1nc(=O)c(S(=O)(=O)c2ccc(-c3ccc(F)nc3C)cc2)c(O)n1[C@H]1CCc2ccccc21 [Example 326, 1-[(1S)-2,3-dihydro-1H-inden-1-yl]-2-(ethoxymethyl)-5-[4-(6-fluoro-2-methylpyridin-3-yl)benzenesulfonyl]-6-hydroxy-1,4-dihydropyrimidin-4-one] |
| 0.01 to 10 nM | COC[C@@H](c1ccccc1)n1c(COC(C)C)nc(=O)c(S(=O)(=O)c2ccc(-c3ccnc(F)c3C)cc2)c1O [Example 327, 5-[4-(2-fluoro-3-methylpyridin-4-yl)benzenesulfonyl]-6-hydroxy-1-[(1R)-2-methoxy-1-phenylethyl]-2-[(propan-2-yloxy)methyl]-1,4-dihydropyrimidin-4-one] |
| 0.01 to 10 nM | COC[C@@H](c1ccccc1)n1c(COC(C)C)nc(=O)c(S(=O)(=O)c2ccc(-c3cccnc3C)cc2)c1O [Example 328] |
| 0.01 to 10 nM | COC[C@@H](c1ccccc1)n1c(COC(C)C)nc(=O)c(S(=O)(=O)c2ccc(-c3ccncc3C)cc2)c1O [Example 329, 6-hydroxy-1-[(1R)-2-methoxy-1-phenylethyl]-5-[4-(3-methylpyridin-4-yl)benzenesulfonyl]-2-[(propan-2-yloxy)methyl]-1,4-dihydropyrimidin-4-one] |
